This note sets out measurements from patent publication US20230131427A1, “FUNGICIDAL COMPOSITIONS” (SYNGENTA CROP PROTECTION AG, priority 2020, published 2023).

For experiment [1], the system named is Glomerella lagenarium (Colletotrichum lagenarium). The experiment is described as follows: Glomerella lagenarium (Colletotrichum lagenarium) liquid culture / cucumber / preventative (anthracnose). The class given is cell-based. The settings on record: Colletotrichum orbiculare, vs untreated control. On the procedure:
Mycelia fragments or conidia suspensions of a fungus prepared either freshly from liquid cultures of the fungus or from cryogenic storage, are directly mixed into nutrient broth. DMSO solutions of the test compound (max. 10 mg/mL) are diluted with 0.025% Tween20 by a factor of 50 and 10 μl of this solution is pipetted into a microtiter plate (96-well format). The nutrient broth containing the fungal spores/mycelia fragments is then added to give an end concentration of the tested compound. The test plates are incubated in the dark at 24° C. and 96% relative humidity. The inhibition of fungal growth is determined photometrically after 2 to 7 days, depending on the pathosystem, and percent antifungal activity relative to the untreated check is calculated.
Conidia of the fungus from cryogenic storage are directly mixed into nutrient broth (PDB potato dextrose broth). After placing a (DMSO) solution of test compound into a microtiter plate (96-well format), the nutrient broth containing the fungal spores is added.

Experiment [2] concerns Phakopsora pachyrhizi. The experiment is described as follows: Phakopsora pachyrhizi / soybean / leaf disc preventative (Asian soybean rust). The settings on record: foliar, 288 h, vs untreated control. It counts as in vivo. On the procedure:
(§1) Leaf disks or leaf segments of various plant species are cut from plants grown in a greenhouse. The cut leaf disks or segments are placed in multiwell plates (24-well format) onto water agar. The leaf disks are sprayed with a test solution before (preventative) or after (curative) inoculation. Compounds to be tested are prepared as DMSO solutions (max. 10 mg/mL) which are diluted to the appropriate concentration with 0.025% Tween20 just before spraying. The inoculated leaf disks or segments are incubated under defined conditions (temperature, relative humidity, light, etc.) according to the respective test system. A single evaluation of disease level is carried out 3 to 14 days after inoculation, depending on the pathosystem. Percent disease control relative to the untreated check leaf disks or segments is then calculated.
Soybean leaf disks are placed on agar in multiwell plates (24-well format) and sprayed with test solutions. After drying, the leaf disks are inoculated with a spore suspension of the fungus. After appropriate incubation the activity of a compound is assessed approx.12 dpi (days after inoculation) as preventive fungicidal activity.

The subject of experiment [3] is Puccinia recondita f. sp. tritici. The experiment is described as follows: Puccinia recondita f. sp. tritici / wheat / leaf disc curative (brown rust). The class given is in vivo. The settings on record: foliar, vs untreated control. The protocol:
Leaf disks or leaf segments of various plant species are cut from plants grown in a greenhouse. The cut leaf disks or segments are placed in multiwell plates (24-well format) onto water agar. The leaf disks are sprayed with a test solution before (preventative) or after (curative) inoculation. […] The inoculated leaf disks or segments are incubated under defined conditions (temperature, relative humidity, light, etc.) according to the respective test system. […] Percent disease control relative to the untreated check leaf disks or segments is then calculated. Wheat leaf segments cv. Kanzler are placed on agar in multiwell plates (24-well format). The leaf segments are inoculated with a spore suspension of the fungus. […] The formulated test compound diluted in water is applied 1 day after inoculation.

Experiment [4] has the same test system. Kind of experiment: Puccinia recondita f. sp. tritici / wheat / leaf disc preventative (brown rust). The class given is in vivo. The settings on record: foliar, vs untreated control. On the procedure:
as §1
Wheat leaf segments cv. Kanzler are placed on agar in multiwell plates (24-well format) and sprayed with the formulated test compound diluted in water. The leaf disks are inoculated with a spore suspension of the fungus 1 day after application. The inoculated leaf segments are incubated at 19° C. and 75% rh under a light regime of 12 h light/12 h darkness in a climate cabinet and the activity of a compound is assessed as percent disease control compared to untreated when an appropriate level of disease damage appears in untreated check leaf segments (7-9 days after application).

For experiment [5], the system named is Mycosphaerella arachidis syn. Cercospora arachidicola. Kind of experiment: Example B4: mixtures, preventative activity against Mycosphaerella arachidis syn. Cercospora arachidicola (brown leaf spot of peanut), liquid culture. The settings on record: component B alone; for inhibition at 0.1 ppm / inhibition at 0.3 ppm: Mycosphaerella arachidis. The class given is cell-based. The text has this:
(§2) This occurs whenever the action of an active ingredient combination is greater than the sum of the actions of the individual components. The action to be expected E for a given active ingredient combination obeys the so-called COLBY formula and can be calculated as follows (COLBY, S. R. “Calculating synergistic and antagonistic responses of herbicide combination”. Weeds, Vol. 15, pages 20-22; 1967):
(§3) If the action actually observed (O) is greater than the expected action (E), then the action of the combination is super-additive, i.e. there is a synergistic effect. In mathematical terms, synergism corresponds to a positive value for the difference of (O-E). In the case of purely complementary addition of activities (expected activity), said difference (O-E) is zero. A negative value of said difference (O-E) signals a loss of activity compared to the expected activity.
(§4) Conidia of the fungus from cryogenic storage were directly mixed into nutrient broth (PDB potato dextrose broth). A DMSO solution of the test compounds was placed into a microtiter plate (96-well format) and the nutrient broth containing the fungal spores was added to it.
Cercospora arachidicola (Brown leaf spot of peanut). Fungicidal activity was evaluated on a 100-0 scale (100=no disease growth; 0=well completely covered by mycelium).

The subject of the next experiment is Septoria glycines. The experiment is described as follows: Example B2: mixtures, preventative activity against Septoria glycines (brown spot), liquid culture. The class given is cell-based. The settings on record: component B alone; for inhibition at 0.1 ppm / inhibition at 0.3 ppm: Septoria glycines; for inhibition at 0.1 ppm: read-out: Activity (%) B.
Source text: as §2, §3
Conidia of the fungus harvested from a fresh culture grown on artificial media, were directly mixed into nutrient broth (PDB potato dextrose broth). A DMSO solution of the test compounds was placed into a microtiter plate (96-well format) and the nutrient broth containing the fungal spores was added to it.
(§5) Fungicidal activity was evaluated on a 100-0 scale (100=no disease growth; 0=well completely covered by mycelium).

For experiment [6], the system named is Glomerella lagenarium syn. Colletotrichum lagenarium. Kind of experiment: Example B1: mixtures, preventative activity against Glomerella lagenarium syn. Colletotrichum lagenarium, liquid culture. The class given is cell-based. The settings on record: component B alone; for inhibition at 0.1 ppm / inhibition at 0.3 ppm: Colletotrichum orbiculare, read-out: Activity (%) B.
Source text: as §2, §3, §4, §5

A further experiment concerns Septoria tritici. Kind of experiment: Example B3: mixtures, preventative activity against Septoria tritici (leaf blotch), liquid culture. The class given is cell-based. The settings on record: component B alone; for inhibition at 0.1 ppm / inhibition at 0.3 ppm: Zymoseptoria tritici, read-out: Activity (%) B.
Source text: as §2, §3, §4, §5

In experiment [7] the test system is Phakopsora pachyrhizi. The experiment is described as follows: Example B5: preventative activity against Phakopsora pachyrhizi (soybean rust), whole soybean plants sprayed, leaf disks inoculated. The settings on record: Phakopsora pachyrhizi, foliar. It counts as in vivo. On the procedure:
Whole soybean plants are treated with the recited active ingredients 4 weeks after planting. 1 day after spraying leaf disks are cut from the first trifoliate leaf. Five repetitions at each rate are conducted. The leaf disks are inoculated with Phakopsora pachyrhizi (Asian soybean rust) one day after treatment.
Evaluation of the leaf disks is conducted 11 to 14 days after inoculation and the activity is derived from the relation of the treated vs untreated, infested check (100=no disease, no damage to the leaf, 0=high infestation, leaf damaged heavily). The rates of the active ingredients used are given in the tables as g active ingredient (a.i.)/ha.

Where [8] appears, read: 72 h, 0.1 ppm, 72 hrs, 100=no disease growth.
The mark [9] stands for this setting: active ingredient alone, read-out: Observed Activity (%) (% of untreated).
Where [10] appears, read: applied alone, read-out: Observed Activity (% of untreated) against Phakopsora pachyrhizi.

Like-named read-outs stand apart in the source and are kept apart here.

Usually inhibition of growth stands for how much of the control response was suppressed. A low value points to a weak effect. A word on the pest or weed control: it is how far the test organism was held down. Read a high pest or weed control as strong suppression. In experiment [1], `CO/C=C(\Oc1cc(-n2ncc(C3CC3)n2)ccc1C)C(=O)OC` [X.11, methyl (Z)-2-[5-(4-cyclopropyltriazol-2-yl)-2-methyl-phenoxy]-3-methoxy-prop-2-enoate] yielded an inhibition of growth at 6.7 ppm not below 80%. In addition, in the experiment on Phakopsora pachyrhizi [2], the pest or weed control at 67 ppm was not below 80%. Besides, the pest or weed control at 200 ppm in [3] and in [4] was not below 80% in each case.
As for `CO/C=C(\Oc1cc(-n2ncc(C(C)C)n2)ccc1C)C(=O)OC` [X.12, methyl (Z)-2-[5-(4-isopropyltriazol-2-yl)-2-methyl-phenoxy]-3-methoxy-prop-2-enoate], in experiment [1], the inhibition of growth at 6.7 ppm is not below 80%. In addition, the pest or weed control at 67 ppm in the experiment on Phakopsora pachyrhizi [2] is not below 80%. Moreover, the pest or weed control at 200 ppm in [3] and in experiment [4] was not below 80% each time.
On to `Cc1ccc(C(=O)OCc2ccc(Oc3ccccc3)cc2)c(N)n1` [aminopyrifen], for which the “Activity (%) B” value in experiment [5] (0.1 ppm) stood at 90%; in experiment [5] (0.3 ppm) it was 100%; with Septoria glycines (0.1 ppm), 0%; with Septoria glycines (0.1 ppm, 100-0 scale), 0%; in the experiment with Septoria glycines (0.3 ppm, 100-0 scale), 20%; in experiment [6] (0.1 ppm) it was 20%. The “Activity (%) B” value in experiment [6] (0.3 ppm) stood at 50%.
Regarding `N#Cc1c(Cl)c(Cl)c(Cl)c(C#N)c1Cl` [chlorothalonil, reference compound], the results for the inhibition at 0.1 ppm (in [5] (0.1 ppm); in [6] (0.1 ppm); in the experiment with Septoria tritici (setting [8])) were 0%, 0% and 20%, respectively. Moreover, the inhibition at 0.3 ppm in [5] (0.3 ppm) is 90%; in experiment [6] (0.3 ppm), 20%; in the experiment on Septoria tritici (72 h, 0.3 ppm, 72 hrs) it was 70%; in the experiment on Septoria tritici (0.3 ppm, 100-0 scale), 70%.
For the molecule `COc1ccnc(C(=O)N[C@@H](C)C(=O)O[C@@H](C)C(c2ccc(F)cc2)c2ccc(F)cc2)c1OC(C)=O` [florylpicoxamid, reference compound], the “Activity (%) B” value was 70% in experiment [5] (0.01 ppm); 90% in experiment [5] (0.02 ppm); 0% with Septoria glycines (0.01 ppm); 0% in the experiment on Septoria glycines (0.01 ppm, 100-0 scale); 20% in the experiment with Septoria glycines (0.02 ppm); 20% in the experiment with Septoria glycines (0.02 ppm, 100-0 scale). The “Activity (%) B” value in the experiment on Septoria tritici (0.01 ppm, 100-0 scale) is listed as 0%; in the experiment on Septoria tritici (0.01 ppm, 72 hrs), 0%; in the experiment with Septoria tritici (0.02 ppm, 100-0 scale), 20%; in the experiment on Septoria tritici (0.02 ppm, 72 hrs), 20%.
Turning to `O=C(NCCc1ncc(C(F)(F)F)cc1Cl)c1ccccc1C(F)(F)F` [fluopyram], the inhibition at 0.1 ppm (in experiment [5] (0.1 ppm); with Septoria tritici (setting [8])) was 0% each time. The inhibition at 0.3 ppm in experiment [5] (0.3 ppm) worked out at 90%; in the experiment with Septoria tritici (72 h, 0.3 ppm, 72 hrs), 50%.
In the case of `O=C1c2ccccc2C(=O)N1SC(Cl)(Cl)Cl` [folpet], the inhibition at 0.1 ppm in [5] (0.1 ppm) came out at 20%; in the experiment on Septoria tritici (0.1 ppm, 100-0 scale), 0%. Further, the inhibition at 0.3 ppm in the experiment on Septoria tritici (0.3 ppm, 100-0 scale) is 0%.
With `Cc1nc2c(F)c(F)ccc2cc1Oc1cccc(F)c1C(C)(C)O` [ipflufenoquin], the “Activity (%) B” value is on record as 0% with Septoria glycines (0.1 ppm, 100-0 scale); 0% in the experiment on Septoria glycines (0.3 ppm, 100-0 scale); 20% in experiment [6] (0.1 ppm); 100% in experiment [6] (0.3 ppm); 0% with Septoria tritici (0.1 ppm, 100-0 scale); 20% in the experiment with Septoria tritici (0.3 ppm, 100-0 scale).
Consider `CC(C)c1ccc(Cl)cc1CN(C(=O)c1c(C(F)F)nn(C)c1F)C1CC1` [isoflucypram], for which the “Activity (%) B” value is recorded as 90% in experiment [5] (0.1 ppm) and 100% in experiment [5] (0.3 ppm).
Turning to `OC(Cc1ccccc1Cl)(Cn1nc[nH]c1=S)C1(Cl)CC1` (stereo not drawn) [proth ioconazole, prothioconazole, reference compound], the inhibition at 22.5 g/ha with Phakopsora pachyrhizi [7] (setting [9]) and in the experiment with Phakopsora pachyrhizi [7] (setting [10]) was 47% each time. The inhibition at 45 g/ha in the experiment with Phakopsora pachyrhizi [7] (setting [9]) and with Phakopsora pachyrhizi [7] (setting [10]) was 80% throughout. The inhibition at 90 g/ha with Phakopsora pachyrhizi [7] (setting [9]) and in the experiment with Phakopsora pachyrhizi [7] (setting [10]) was 94% each time. Besides, the inhibition at 0.1 ppm in the experiment on Septoria glycines (0.1 ppm, 100-0 scale) was found to be 90%. The inhibition at 0.3 ppm came to 90% in the experiment on Septoria glycines (0.3 ppm, 100-0 scale) and 50% in [6] (0.3 ppm). The “Activity (%) B” value in the experiment with Septoria glycines (0.3 ppm) is given as 50%; in [6] (0.1 ppm), 20%.
As for `CON=C(C(=O)OC)c1ccccc1CON=C(C)c1cccc(C(F)(F)F)c1` [trifloxystrobin, reference compound], the inhibition at 2.25 g/ha in the experiment on Phakopsora pachyrhizi [7] (applied alone, 2.25 g/ha, read-out: Observed Activity (% of untreated) against Phakopsora pachyrhizi) is 0%. In addition, the inhibition at 4.5 g/ha in the experiment on Phakopsora pachyrhizi [7] (applied alone, 4.5 g/ha, read-out: Observed Activity (% of untreated) against Phakopsora pachyrhizi) turned out to be 3%. In addition, the inhibition at 9 g/ha with Phakopsora pachyrhizi [7] (applied alone, 9 g/ha, read-out: Observed Activity (% of untreated) against Phakopsora pachyrhizi) came out at 0%. Further, the inhibition at 18 g/ha with Phakopsora pachyrhizi [7] (applied alone, 18 g/ha, read-out: Observed Activity (% of untreated) against Phakopsora pachyrhizi) came out at 19%. In addition, the inhibition at 0.1 ppm in the experiment on Septoria glycines (0.1 ppm, 100-0 scale) was determined as 90%; in [6] (0.1 ppm), 90%. For the same molecule, the inhibition at 0.3 ppm in the experiment on Septoria glycines (0.3 ppm, 100-0 scale) was 100%; in experiment [6] (0.3 ppm), 90%.
